# Measurements from patent publication US20080194574A1, “Pyrazine Derivatives As Effective Compounds Against Infectious Diseases” (AXXIMA PHARMACEUTICALS AG, priority 2003, published 2008).
# Target: T1, viral kinase pUL-97 (Human cytomegalovirus, UniProt P16788)
# T1 construct: The pUL-97 gene was cloned into a baculovirus vector; GST (glutathione S-transferase) (N); made in house; host or cells: Sf9 insect cells, baculovirus
# Test: UL97 kinase assay on Immobilon plate
# Assay type: biochemical
# Details: inhibition of UL 97 kinase activity; class by IC50 / % inhibition at 10 μM or 100 μM; read-out: Activity Class [A, B, C]
# Method in brief: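 Compound was titrated into a radiometric reaction of Sf9-expressed GST-UL97 kinase, incubated 1 h at 30 °C in Tris-HCl pH 7.5/MnCl2/DTT buffer before EDTA stop. MBP substrate and ATP (3 μM in the added assay buffer) were supplied with γ-[33P]ATP. Labelled product bound to Immobilon filter was washed and counted by scintillation.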
# T1 sequence (P16788 whole entry): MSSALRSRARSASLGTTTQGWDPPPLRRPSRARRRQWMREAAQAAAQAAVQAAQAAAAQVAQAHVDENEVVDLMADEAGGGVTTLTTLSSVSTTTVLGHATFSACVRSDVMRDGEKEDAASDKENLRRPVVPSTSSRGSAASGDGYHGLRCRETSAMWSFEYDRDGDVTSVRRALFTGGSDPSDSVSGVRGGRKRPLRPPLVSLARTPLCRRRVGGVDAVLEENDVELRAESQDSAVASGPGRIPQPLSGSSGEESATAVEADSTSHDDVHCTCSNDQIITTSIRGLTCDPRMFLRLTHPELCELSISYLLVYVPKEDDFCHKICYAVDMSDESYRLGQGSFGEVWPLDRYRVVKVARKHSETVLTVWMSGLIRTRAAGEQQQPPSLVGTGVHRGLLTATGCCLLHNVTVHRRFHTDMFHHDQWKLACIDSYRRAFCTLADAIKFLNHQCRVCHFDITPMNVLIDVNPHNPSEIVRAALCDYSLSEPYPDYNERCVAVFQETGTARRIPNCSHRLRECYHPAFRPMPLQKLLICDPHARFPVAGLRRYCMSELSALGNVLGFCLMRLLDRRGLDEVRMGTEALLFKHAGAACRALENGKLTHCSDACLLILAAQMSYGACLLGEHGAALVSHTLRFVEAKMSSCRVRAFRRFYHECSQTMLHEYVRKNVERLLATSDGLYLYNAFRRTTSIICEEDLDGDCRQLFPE
row,IC50 [µM],SMILES
1,10 to 100,"COc1ccc(N2CCN(c3cncc(-c4ccccc4)n3)CC2)cc1 [compound 291, 4-(4-Methoxy-phenyl)-6′-phenyl-3,4,5,6-tetrahydro-2H-[1,2′]bipyrazinyl]"
2,1 to 10,"COc1ccc(N2CCN(c3cncc(-c4cc5ccccc5s4)n3)CC2)cc1 [compound 292, 6′-Benzo[b]thiophen-2-yl-4-(4-methoxy-phenyl)-3,4,5,6-tetrahydro-2H-[1,2′]bipyrazinyl]"
3,1 to 10,"COc1ccc(N2CCN(c3cncc(-c4ccc(C#N)cc4)n3)CC2)cc1 [compound 293, 4-[4-(4-Methoxy-phenyl)-3,4,5,6-tetrahydro-2H-[1,2′]bipyrazinyl-6′-yl]-benzonitrile]"
4,10 to 100,"COc1ccc(N2CCN(c3cncc(-c4cccc(OC)c4)n3)CC2)cc1 [compound 294, 4-(4-Methoxy-phenyl)-6′-(3-methoxy-phenyl)-3,4,5,6-tetrahydro-2H-[1,2′]bipyrazinyl]"
5,10 to 100,"Cc1cccc(N2CCN(c3cncc(-c4cc5ccccc5s4)n3)CC2)c1C [compound 295, 6′-Benzo[b]thiophen-2-yl-4-(2,3-dimethyl-phenyl)-3,4,5,6-tetrahydro-2H-[1,2′]bipyrazinyl]"
6,10 to 100,"CC(=O)c1ccc(-c2cncc(N3CCN(c4cccc(C)c4C)CC3)n2)s1 [compound 296, 1-{5-[4-(2,3-Dimethyl-phenyl)-3,4,5,6-tetrahydro-2H-[1,2′]bipyrazinyl-6′-yl]-thiophen-2-yl}-ethanone]"
7,10 to 100,"CC(=O)c1cccc(-c2cncc(N3CCN(c4cccc(C)c4C)CC3)n2)c1 [compound 297, 1-{3-[4-(2,3-Dimethyl-phenyl)-3,4,5,6-tetrahydro-2H-[1,2′]bipyrazinyl-6′-yl]-phenyl}-ethanone]"
8,10 to 100,"CC(=O)c1ccc(-c2cncc(N3CCN(c4cccc(C)c4C)CC3)n2)cc1 [compound 298, 1-{4-[4-(2,3-Dimethyl-phenyl)-3,4,5,6-tetrahydro-2H-[1,2′]bipyrazinyl-6′-yl]-phenyl}-ethanone]"
9,1 to 10,"Cc1cccc(N2CCN(c3cncc(-c4ccc(C(N)=O)cc4)n3)CC2C)c1 (centres unmarked) [compound 299, 4-(3-Methyl-4-m-tolyl-3,4,5,6-tetrahydro-2H-[1,2′]bipyrazinyl-6′-yl)-benzamide]"
10,10 to 100,"Cc1cccc(N2CCN(c3cncc(-c4cc5ccccc5s4)n3)CC2C)c1 (centres unmarked) [compound 300, 6′-Benzo[b]thiophen-2-yl-3-methyl-4-m-tolyl-3,4,5,6-tetrahydro-2H-[1,2′]bipyrazinyl]"
11,10 to 100,"CSc1ccc(-c2cncc(N3CCN(c4cccc(C)c4)C(C)C3)n2)cc1 (centres unmarked) [compound 301, 3-Methyl-6′-(4-methylsulfanyl-phenyl)-4-m-tolyl-3,4,5,6-tetrahydro-2H-[1,2′]bipyrazinyl]"
12,1 to 10,"COc1cccc(-c2cncc(N3CCN(c4ccc(Cl)cc4)CC3)n2)c1 [compound 302, 4-(4-Chloro-phenyl)-6′-(3-methoxy-phenyl)-3,4,5,6-tetrahydro-2H-[1,2′]bipyrazinyl]"
13,1 to 10,"N#Cc1ccc(-c2cncc(N3CCN(c4ccccn4)CC3)n2)cc1 [compound 303, 4-(4-Pyridin-2-yl-3,4,5,6-tetrahydro-2H-[1,2′]bipyrazinyl-6′-yl)-benzonitrile]"
14,1 to 10,"COc1cccc(-c2cncc(N3CCN(c4ccccn4)CC3)n2)c1 [compound 304, 6′-(3-Methoxy-phenyl)-4-pyridin-2-yl-3,4,5,6-tetrahydro-2H-[1,2′]bipyrazinyl]"
15,1 to 10,"Fc1ccc(-c2cncc(N3CCN(c4ccccn4)CC3)n2)cc1 [compound 305, 6′-(4-Fluoro-phenyl)-4-pyridin-2-yl-3,4,5,6-tetrahydro-2H-[1,2′]bipyrazinyl]"
16,1 to 10,"COc1ccc(-c2cncc(N3CCN(c4ccccn4)CC3)n2)cc1OC [compound 306, 6′-(3,4-Dimethoxy-phenyl)-4-pyridin-2-yl-3,4,5,6-tetrahydro-2H-[1,2′]bipyrazinyl]"
17,1 to 10,"CC(=O)c1cccc(-c2cncc(N3CCN(c4ccccn4)CC3)n2)c1 [compound 307, 1-[3-(4-Pyridin-2-yl-3,4,5,6-tetrahydro-2H-[1,2′]bipyrazinyl-6′-yl)-phenyl]-ethanone]"
18,1 to 10,"CC(=O)c1ccc(-c2cncc(N3CCN(c4ccccn4)CC3)n2)cc1 [compound 308, 1-[4-(4-Pyridin-2-yl-3,4,5,6-tetrahydro-2H-[1,2′]bipyrazinyl-6′-yl)-phenyl]-ethanone]"
19,10 to 100,"Fc1ccc(-c2cncc(N3CCN(c4ccc(C(F)(F)F)cc4)CC3)n2)cc1 [compound 309, 6′-(4-Fluoro-phenyl)-4-(4-trifluoromethyl-phenyl)-3,4,5,6-tetrahydro-2H-[1,2′]bipyrazinyl]"
20,10 to 100,"COc1ccc(-c2cncc(N3CCN(c4ccc(C(F)(F)F)cc4)CC3)n2)cc1OC [compound 310, 6′-(3,4-Dimethoxy-phenyl)-4-(4-trifluoromethyl-phenyl)-3,4,5,6-tetrahydro-2H-[1,2′]bipyrazinyl]"
21,1 to 10,"CSc1ccc(-c2cncc(N3CCN(c4ccc(C(F)(F)F)cc4)CC3)n2)cc1 [compound 311, 6′-(4-Methylsulfanyl-phenyl)-4-(4-trifluoromethyl-phenyl)-3,4,5,6-tetrahydro-2H-[1,2′]bipyrazinyl]"

row,IC50 [µM],SMILES
1,1 to 10,"CC(=O)c1cccc(-c2cncc(N3CCN(c4cnccn4)CC3)n2)c1 [compound 312, 1-[3-(2′,3′,5′,6′-Tetrahydro-[2,1′;4′,2″]terpyrazin-6-yl)-phenyl]-ethanone]"
2,< 1,"Brc1ccc(-c2cncc(N3CCN(c4cnccn4)CC3)n2)cc1 [compound 313, 6-(4-Bromo-phenyl)-2′,3′,5′,6′-tetrahydro-[2,1′;4′,2″]terpyrazine]"
3,1 to 10,"CSc1ccc(-c2cncc(N3CCN(c4cnccn4)CC3)n2)cc1 [compound 314, 6-(4-Methylsulfanyl-phenyl)-2′,3′,5′,6′-tetrahydro-[2,1′;4′,2″]terpyrazine]"
4,1 to 10,"OCc1ccc(-c2cncc(N3CCN(c4ccc(Cl)c(Cl)c4)CC3)n2)cc1 [compound 315, {4-[4-(3,4-Dichloro-phenyl)-3,4,5,6-tetrahydro-2H-[1,2′]bipyrazinyl-6′-yl]-phenyl}-methanol]"
5,10 to 100,"Cc1ccc(N2CCN(c3cncc(-c4ccc(F)c(Cl)c4)n3)CC2)cc1C [compound 316, 6′-(3-Chloro-4-fluoro-phenyl)-4-(3,4-dimethyl-phenyl)-3,4,5,6-tetrahydro-2H-[1,2′]bipyrazinyl]"
6,10 to 100,"Cc1ccc(N2CCN(c3cncc(-c4csc5ccccc45)n3)CC2)cc1C [compound 317, 6′-Benzo[b]thiophen-3-yl-4-(3,4-dimethyl-phenyl)-3,4,5,6-tetrahydro-2H-[1,2′]bipyrazinyl]"
7,10 to 100,"c1ccc(C2CCN(c3cncc(-c4cccc5ccccc45)n3)CC2)cc1 [compound 318, 2-Naphthalen-1-yl-6-(4-phenyl-piperidin-1-yl)-pyrazine]"
8,10 to 100,"c1ccc(C2CCN(c3cncc(-c4csc5ccccc45)n3)CC2)cc1 [compound 319, 2-Benzo[b]thiophen-3-yl-6-(4-phenyl-piperidin-1-yl)-pyrazine]"
9,10 to 100,"Cc1ccc(N2CCN(c3cncc(-c4ccc5ccccc5c4)n3)CC2)c(C)c1 [compound 320, 4-(2,4-Dimethyl-phenyl)-6′-naphthalen-2-yl-3,4,5,6-tetrahydro-2H-[1,2′]bipyrazinyl]"
10,10 to 100,"Cc1ccc(N2CCN(c3cncc(-c4ccc(CO)cc4)n3)CC2)c(C)c1 [compound 321, {4-[4-(2,4-Dimethyl-phenyl)-3,4,5,6-tetrahydro-2H-[1,2′]bipyrazinyl-6′-yl]-phenyl}-methanol]"
11,1 to 10,"COc1cccc(N2CCN(c3cncc(-c4ccc5ccccc5c4)n3)CC2)c1 [compound 322, 4-(3-Methoxy-phenyl)-6′-naphthalen-2-yl-3,4,5,6-tetrahydro-2H-[1,2′]bipyrazinyl]"
12,1 to 10,"COc1cccc(N2CCN(c3cncc(-c4ccc(CO)cc4)n3)CC2)c1 [compound 323, {4-[4-(3-Methoxy-phenyl)-3,4,5,6-tetrahydro-2H-[1,2′]bipyrazinyl-6′-yl]-phenyl}-methanol]"
13,10 to 100,"COc1cccc(N2CCN(c3cncc(-c4ccoc4)n3)CC2)c1 [compound 324, 6′-Furan-3-yl-4-(3-methoxy-phenyl)-3,4,5,6-tetrahydro-2H-[1,2′]bipyrazinyl]"
14,10 to 100,"Cc1cccc(-c2cncc(N3CCN(c4ccc(Cl)cc4)CC3)n2)c1 [compound 325, 4-(4-Chloro-phenyl)-6′-m-tolyl-3,4,5,6-tetrahydro-2H-[1,2′]bipyrazinyl]"
15,1 to 10,"Clc1ccc(N2CCN(c3cncc(-c4csc5ccccc45)n3)CC2)cc1 [compound 326, 6′-Benzo[b]thiophen-3-yl-4-(4-chloro-phenyl)-3,4,5,6-tetrahydro-2H-[1,2′]bipyrazinyl]"
16,10 to 100,"Cc1cccc(-c2cncc(N3CCN(c4ccccn4)CC3)n2)c1 [compound 327, 4-Pyridin-2-yl-6′-m-tolyl-3,4,5,6-tetrahydro-2H-[1,2′]bipyrazinyl]"
17,1 to 10,"Cc1ccc(-c2cncc(N3CCN(c4ccccn4)CC3)n2)cc1 [compound 328, 4-Pyridin-2-yl-6′-p-tolyl-3,4,5,6-tetrahydro-2H-[1,2′]bipyrazinyl]"
18,1 to 10,"Cc1cccc(-c2cncc(N3CCN(c4cnccn4)CC3)n2)c1 [compound 329, 6-m-Tolyl-2′,3′,5′,6′-tetrahydro-[2,1′;4′,2″]terpyrazine]"
19,1 to 10,"Cc1ccc(-c2cncc(N3CCN(c4cnccn4)CC3)n2)cc1 [compound 330, 6-p-Tolyl-2′,3′,5′,6′-tetrahydro-[2,1′;4′,2″]terpyrazine]"
20,10 to 100,"c1ccc2c(-c3cncc(N4CCN(c5cnccn5)CC4)n3)cccc2c1 [compound 331, 6-Naphthalen-1-yl-2′,3′,5′,6′-tetrahydro-[2,1′;4′,2″]terpyrazine]"
